Structures are written as SMILES. pIC50: −log10 of the molar value.

The values that follow come from patent publication US7803795B2, “Phthalazine derivatives as parp inhibitors” (Janssen Pharmaceutica N.V., priority 2004, dated 2010).

For one series, the target named is T1, TANK-2 enzyme (Homo sapiens, UniProt Q9H2K2).
T1 construct: His tag (inferred from capture on a Ni-coated plate); made in house
T1 sequence (Q9H2K2 1-1166): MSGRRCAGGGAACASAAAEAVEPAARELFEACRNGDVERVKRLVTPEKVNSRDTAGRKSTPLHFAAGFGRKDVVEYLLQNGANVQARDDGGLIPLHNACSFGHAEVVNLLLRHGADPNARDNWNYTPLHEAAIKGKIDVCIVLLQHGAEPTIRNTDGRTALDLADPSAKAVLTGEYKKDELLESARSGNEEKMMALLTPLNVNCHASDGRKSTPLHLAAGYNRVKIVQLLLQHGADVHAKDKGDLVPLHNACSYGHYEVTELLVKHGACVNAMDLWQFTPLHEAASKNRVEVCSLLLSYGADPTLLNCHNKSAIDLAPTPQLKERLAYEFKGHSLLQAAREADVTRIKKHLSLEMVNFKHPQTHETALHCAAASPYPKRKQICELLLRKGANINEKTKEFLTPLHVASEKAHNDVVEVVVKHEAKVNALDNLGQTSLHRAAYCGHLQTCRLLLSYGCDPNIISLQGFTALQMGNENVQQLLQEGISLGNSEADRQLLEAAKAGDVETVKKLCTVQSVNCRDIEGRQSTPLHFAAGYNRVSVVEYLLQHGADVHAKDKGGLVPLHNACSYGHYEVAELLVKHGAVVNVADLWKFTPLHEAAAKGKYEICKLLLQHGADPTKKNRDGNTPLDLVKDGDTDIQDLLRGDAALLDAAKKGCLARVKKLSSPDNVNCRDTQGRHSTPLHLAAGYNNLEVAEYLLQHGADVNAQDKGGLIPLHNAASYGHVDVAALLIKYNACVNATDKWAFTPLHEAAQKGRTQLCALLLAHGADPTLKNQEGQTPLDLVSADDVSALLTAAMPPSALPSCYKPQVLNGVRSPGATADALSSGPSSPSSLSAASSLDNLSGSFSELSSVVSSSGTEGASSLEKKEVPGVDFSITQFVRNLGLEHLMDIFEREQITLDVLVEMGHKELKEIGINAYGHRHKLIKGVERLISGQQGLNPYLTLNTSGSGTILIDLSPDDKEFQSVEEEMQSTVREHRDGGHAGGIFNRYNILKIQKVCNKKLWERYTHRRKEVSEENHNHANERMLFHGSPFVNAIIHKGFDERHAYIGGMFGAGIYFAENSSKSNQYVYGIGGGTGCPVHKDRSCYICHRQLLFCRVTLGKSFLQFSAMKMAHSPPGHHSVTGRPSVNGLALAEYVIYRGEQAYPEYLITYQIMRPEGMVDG
The series can be described thus: in vitro Scintillation Proximity Assay (SPA) for TANK-2 inhibitory activity. The format is biochemical. As to the method:
In Vitro Scintillation Proximity Assay (SPA) for Tank-2 Inhibitory Activity
Compounds of the present invention were tested in an in vitro assay based on SPA technology with Ni Flash plates (96 or 384 well).
In principle, the assay relies upon SPA technology for the detection of auto-poly(ADP-ribosylation of TANK-2 protein using [^3H]-nicotinamide adenine dinucleotide ([^3H]-NAD^+) as ADP-ribosyl donor.
A stock solution of [^3H]-NAD^+/NAD was made by adding 64.6 μl of [^3H]-NAD^+ (0.1 mCi/ml, supplier: Perkin Elmer) and 46.7 μl NAD-stock (10.7 mM, stored at −20° C., supplier Roche) to 1888.7 μl assay buffer (60 mM Tris/HCl, pH 7.4; 0.9 mM DTT; 6 mM MgCl2). The TANK-2 enzyme was produced as described in EP1238063.60 μl of assay buffer, together with 1 μl of compound in DMSO, 20 μl of [^3H]-NAD^+/NAD and 20 μl of TANK-2 enzyme (final concentration 6 μg/ml) was added per well into a 96-well Ni-coated flash plate (Perkin Elmer). After incubation of the mixture for 120 min. at room temperature, the reaction was terminated by adding 60 μl of stopsolution (42.6 mg NAD in 6 ml H2O). The plates were covered with a plate sealer and placed in a TopCountNXT™ (Packard) for scintillation counting. Values were expressed as counts per minute (cpm). For each experiment, controls (containing TANK-2 enzyme and DMSO without compound), a blank incubation (containing DMSO but no TANK-2 enzyme or compound) and samples (containing TANK-2 enzyme and compound dissolved in DMSO) were run in parallel. All compounds tested were dissolved and eventually further diluted in DMSO. […] In each test, the blank value was subtracted from both the control and the sample values. The control sample represented maximal TANK-2 enzyme activity. For each sample, the amount of cpm was expressed as a percentage of the mean cpm value of the controls. When appropriate, IC50-values (concentration of the drug, needed to reduce the TANK-2 enzyme activity to 50% of the control) were computed using linear interpolation between the experimental points just above and below the 50% level. Herein the effects of test compounds are expressed as pIC50 (the negative log value of the IC50-value). As reference compounds, 3-aminobenzamide and 4-amino-1,8-naphthalimide were included to validate the SPA assay. Herein the assay was described using 96-well plates. In the assay using 384-well plates the same final concentrations were used and volumes were adapted.

For orientation: pIC50 means the negative decadic logarithm of the IC50, by convention in mol/L. High values mean a low IC50, low ones a high IC50. For `O=c1[nH]nc(NC2CCN(C[C@@H](O)[C@@H]3CCc4ccccc4O3)CC2)c2ccccc12` (relative stereo) [Compound 27], at TANK-2 enzyme, the pIC50 was < 5.00.
The melting point is the temperature, or range, at which the solid turns liquid. `O=c1[nH]nc(C2CCN(Cc3ccccc3)CC2)c2ccccc12` [Compound 1] gave a melting point of 222 °C. Besides, at TANK-2 enzyme, the pIC50 was 5.07.
The molecule `O=c1[nH]nc(N[C@@H]2C[C@H]3CC[C@@H](C2)N3CCCC(c2ccc(F)cc2)c2ccc(F)cc2)c2ccccc12` [Compound 3] showed a pIC50 at TANK-2 enzyme of 5.30.
On to `O=c1[nH]nc(C2CCNCC2)c2ccccc12` [Compound 4], for which, on TANK-2 enzyme, the pIC50 is < 5.00.
Molecule `CCOC(=O)N1[C@@H]2CC[C@H]1C[C@H](Nc1n[nH]c(=O)c3ccccc13)C2` [Compound 11] displayed a melting point of 218.6 °C. Besides, the pIC50 on TANK-2 enzyme is 5.67.
As for `Clc1nnc(NC2CCN(Cc3ccccc3)C2)c2ccccc12` (stereo not shown) [Compound 12], the negative-log IC50 (pIC50) against TANK-2 enzyme was 5.03.
In the case of `O=c1[nH]nc(C2CCN(CCCOc3ccc(F)cc3)CC2)c2ccccc12` [Compound 13], the negative-log IC50 (pIC50) against TANK-2 enzyme was < 5.00.
For the molecule `O=c1[nH]nc(N[C@@H]2C[C@H]3CC[C@@H](C2)N3)c2ccccc12` [Compound 15], at TANK-2 enzyme, the pIC50 is < 5.00.
Same read-out and setting: under `CCOC(=O)N1[C@@H]2CC[C@H]1C[C@H](Nc1nnc(Cl)c3ccccc13)C2` [Compound 24] stands 5.36; under `CCOC(=O)N1CCC(c2n[nH]c(=O)c3ccccc23)CC1` [Compound 25], < 5.00.
On the same count and under the same terms, the figure for `Cc1nnc(N2CCN(CCCC(c3ccc(F)cc3)c3ccc(F)cc3)CC2)c2ccccc12` [Compound 29] is < 5.00.
Still for that read-out and setting: the figure for `O=c1[nH]nc(NC2CCCN(CCCC(c3ccc(F)cc3)c3ccc(F)cc3)CC2)c2ccccc12` (stereo not shown) [Compound 30] is 5.40; for `O=c1[nH]nc(NC2CCCNCC2)c2ccccc12` (stereo not shown) [Compound 34] it is < 5.00.
Turning to `O=c1[nH]nc(NCC2CCCN(Cc3ccccc3)C2)c2ccccc12` (stereo not shown) [Compound 44], the pIC50 against TANK-2 enzyme was < 5.00.
For the molecule `O=c1[nH]nc(NC2CCN(CCCCOc3ccccc3)CC2)c2ccccc12` [Compound 46], the negative-log IC50 (pIC50) on TANK-2 enzyme was < 5.00.
Regarding `CCOC(=O)N1CCC(Nc2n[nH]c(=O)c3ccccc23)C1` (stereo not shown) [Compound 48], at TANK-2 enzyme, the pIC50 was < 5.00.
Still for that read-out and setting: the figure for `O=c1[nH]nc(NCC2CCCN(CCCC(c3ccc(F)cc3)c3ccc(F)cc3)C2)c2ccccc12` (stereo not shown) [Compound 49] is 5.81; for `CCOC(=O)N1CCCC(Nc2n[nH]c(=O)c3ccccc23)CC1` (stereo not shown) [Compound 50] it is < 5.00; for `O=c1[nH]nc(NC2CCN(Cc3ccccc3)C2)c2ccccc12` (stereo not shown) [Compound 51] it is < 5.00.
`O=c1[nH]nc(N2CCN(CCCC(c3ccc(F)cc3)c3ccc(F)cc3)CC2)c2ccccc12` [Compound 52] showed a pIC50 against TANK-2 enzyme of 5.18.
On the same count and under the same terms, under `O=c1[nH]nc(NC2CCCN(Cc3ccccc3)C2)c2ccccc12` (stereo not shown) [Compound 53] stands < 5.00; under `O=c1[nH]nc(N2CCC(c3cccc(C(F)(F)F)c3)C2)c2ccccc12` (stereo not shown) [Compound 55], 5.83.
On the same count and under the same terms, the figure for `CCOC(=O)N1CCC(Nc2n[nH]c(=O)c3ccccc23)CC1` [Compound 56] is < 5.00.
The same measure, in the same setting: the figure for `Fc1ccc(C(CCCN2CCN(c3nnc(Cl)c4ccccc34)CC2)c2ccc(F)cc2)cc1` [Compound 57] is 5.29; for `CCOC(=O)N1CCN(c2nnc(Cl)c3ccccc23)CC1` [Compound 58] it is 5.04; for `Clc1nnc(NC2CCN(CCCCOc3ccccc3)CC2)c2ccccc12` [Compound 59] it is < 5.00.
With `CN(c1nc2ccccc2s1)C1CCN(c2nnc(Cl)c3ccccc23)CC1` [Compound 61], at TANK-2 enzyme, the pIC50 was < 5.00.
For the molecule `COc1ccc(CCN2CCC(Nc3n[nH]c(=O)c4ccccc34)CC2)cc1` [Compound 63], the pIC50 against TANK-2 enzyme is < 5.00.
For `O=c1[nH]nc(NC2CCN(C/C=C/c3ccccc3)CC2)c2ccccc12` [Compound 65], the pIC50 against TANK-2 enzyme was < 5.00.
In the case of `O=c1[nH]nc(C2CCN(C/C=C/c3ccccc3)CC2)c2ccccc12` [Compound 66], the pIC50 against TANK-2 enzyme is 5.36.
In the case of `O=c1[nH]nc(C2CCN(CCCC(c3ccc(F)cc3)c3ccc(F)cc3)CC2)c2ccccc12` [Compound 67], on TANK-2 enzyme, the negative-log IC50 (pIC50) was < 5.00.
The same measure, in the same setting: the figure for `O=c1[nH]nc(C2CCN(CCCCOc3ccccc3)CC2)c2ccccc12` [Compound 68] is < 5.00; for `O=c1[nH]nc(C2CCN(c3ncccn3)CC2)c2ccccc12` [Compound 69] it is 5.26; for `Cc1nnc(N2CCN(CCn3c(=O)[nH]c4ccccc4c3=O)CC2)c2ccccc12` [Compound 70] it is 5.43.
Regarding `Cc1nnc(N2CCN(CCn3c(=O)[nH]c4ccccc43)CC2)c2ccccc12` [Compound 71], the pIC50 on TANK-2 enzyme is < 5.00.
Consider `Cc1nc2ccccn2c(=O)c1CCN1CCN(c2nnc(C)c3ccccc23)CC1` [Compound 72], for which the negative logarithm of the IC50 (pIC50) on TANK-2 enzyme is < 5.00.
In the case of `Cc1nc2sccn2c(=O)c1CCN1CCN(c2nnc(C)c3ccccc23)CC1` [Compound 73], at TANK-2 enzyme, the pIC50 was < 5.00.
With `Cc1nc2scc(C)n2c(=O)c1CCN1CCN(c2nnc(C)c3ccccc23)CC1` [Compound 74], the negative logarithm of the IC50 (pIC50) at TANK-2 enzyme is 5.33.
Still for that read-out and setting: under `Cc1nc2n(c(=O)c1CCN1CCN(c3nnc(C)c4ccccc34)CC1)CCS2` [Compound 75] stands < 5.00; under `Cc1nc2n(c(=O)c1CCN1CCN(c3nnc(C)c4ccccc34)CC1)CCCS2` [Compound 76], < 5.00; under `Clc1nnc(N2CCN(c3ccccc3)CC2)c2ccccc12` [Compound 77], 5.05.
